Reference: US12662490B2, “Heterocyclic compounds” (Hoffmann-La Roche Inc., priority 2019, dated 2026)

Target: T1, MAGL (Homo sapiens, UniProt Q99685)
T1 sequence (Q99685 1-303): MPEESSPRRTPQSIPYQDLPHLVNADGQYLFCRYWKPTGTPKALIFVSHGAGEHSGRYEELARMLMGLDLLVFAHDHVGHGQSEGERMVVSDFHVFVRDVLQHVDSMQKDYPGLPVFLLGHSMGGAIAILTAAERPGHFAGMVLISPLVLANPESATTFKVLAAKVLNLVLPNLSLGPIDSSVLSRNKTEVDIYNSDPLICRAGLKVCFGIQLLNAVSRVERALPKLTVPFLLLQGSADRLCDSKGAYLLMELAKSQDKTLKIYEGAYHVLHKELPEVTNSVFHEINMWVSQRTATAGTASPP
Assay: 2-AG assay (MAGL inhibitory activity; hydrolysis of 2-arachidonoylglycerol to arachidonic acid followed by mass spectrometry)
Format: biochemical
Conditions: 15 min preincubation at RT, 8 μM 2-arachidonoylglycerol, 30 min at RT, RapidFire MS readout
How it was run: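 Compounds (final 12.5 μM to […], 3-fold steps) preincubated 15 min at RT with MAGL ([…]) in 50 mM TRIS, 1 mM EDTA, Tween buffer. Reaction started with 8 μM 2-arachidonoylglycerol, run 30 min at RT, quenched with ACN containing d8-arachidonic acid. Arachidonic acid quantified by RapidFire SPE-triple quadrupole MS (negative ESI), activity from arachidonic acid/d8 ratio.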

SMILES	IC50 [µM]
O=C(c1cccc(-c2n[nH]cc2F)c1Cl)N1CCN2C[C@@H](c3cc(Cl)c[nH]c3=O)OC[C@@H]2C1 [Example 140, 3-[(3R,9aS)-8-[2-chloro-3-(4-fluoro-1H-pyrazol-3-yl)benzoyl]-3,4,6,7,9,9a-hexahydro-1H-pyrazino[2,1-c][1,4]oxazin-3-yl]-5-chloro-1H-pyridin-2-one]	0.277
COc1cccc(C(=O)N2CCN3C[C@@](O)(c4cccc(C(F)(F)F)c4)OC[C@@H]3C2)c1Cl [Example 141, [(3R,9aS)-3-hydroxy-3-[3-(trifluoromethyl)phenyl]-1,4,6,7,9,9a-hexahydropyrazino[2,1-c][1,4]oxazin-8-yl]-(2-chloro-3-methoxy-phenyl)methanone]	0.288
COc1cccc(C(=O)N2CCN3C[C@@](O)(c4cccc(F)c4F)OC[C@@H]3C2)c1Cl [Example 142, [(3R,9aS)-3-(2,3-difluorophenyl)-3-hydroxy-1,4,6,7,9,9a-hexahydropyrazino[2,1-c][1,4]oxazin-8-yl]-(2-chloro-3-methoxy-phenyl)methanone]	0.332
COc1cccc(C(=O)N2CCN3C[C@@](O)(c4cc(-c5ccccc5)no4)OC[C@@H]3C2)c1Cl [Example 143, [(3S,9aS)-3-hydroxy-3-(3-phenylisoxazol-5-yl)-1,4,6,7,9,9a-hexahydropyrazino[2,1-c][1,4]oxazin-8-yl]-(2-chloro-3-methoxy-phenyl)methanone]	0.348
COc1cccc(C(=O)N2CCN3C[C@@](O)(c4cc(F)c(F)cc4F)OC[C@@H]3C2)c1Cl [Example 144, [(3R,9aS)-3-hydroxy-3-(2,4,5-trifluorophenyl)-1,4,6,7,9,9a-hexahydropyrazino[2,1-c][1,4]oxazin-8-yl]-(2-chloro-3-methoxy-phenyl)methanone]	0.355
COc1cccc(C(=O)N2CCN3CC(c4ccc(F)c(-c5cnco5)c4)OC[C@@H]3C2)c1Cl (stereo partly drawn) [Example 145, [(9aS)-3-(4-fluoro-3-oxazol-5-yl-phenyl)-3,4,6,7,9,9a-hexahydro-1H-pyrazino[2,1-c][1,4]oxazin-8-yl]-(2-chloro-3-methoxy-phenyl)methanone]	0.363
COc1cccc(C(=O)N2CCN3C[C@@](O)(c4nc5ccccc5s4)OC[C@@H]3C2)c1Cl [Example 146, [(3S,9aS)-3-(1,3-benzothiazol-2-yl)-3-hydroxy-1,4,6,7,9,9a-hexahydropyrazino[2,1-c][1,4]oxazin-8-yl]-(2-chloro-3-methoxy-phenyl)methanone]	0.378
COc1ccc(F)c(C(=O)N2CCN3C[C@@H](c4cc(Cl)c[nH]c4=O)OC[C@@H]3C2)c1Cl [Example 147, 3-[(3R,9aS)-8-(2-chloro-6-fluoro-3-methoxy-benzoyl)-3,4,6,7,9,9a-hexahydro-1H-pyrazino[2,1-c][1,4]oxazin-3-yl]-5-chloro-1H-pyridin-2-one]	0.385
COc1cccc(C(=O)N2CCN3C[C@@H](c4ccc(Cl)c(C(F)(F)F)n4)OC[C@@H]3C2)c1Cl [Example 148, [(3S,9aS)-3-[5-chloro-6-(trifluoromethyl)-2-pyridyl]-3,4,6,7,9,9a-hexahydro-1H-pyrazino[2,1-c][1,4]oxazin-8-yl]-(2-chloro-3-methoxy-phenyl)methanone]	0.426
COc1cccc(C(=O)N2CCN3C[C@@H](c4cccc(F)c4F)OC[C@@H]3C2)c1Cl [Example 149, [(3R,9aS)-3-(2,3-difluorophenyl)-3,4,6,7,9,9a-hexahydro-1H-pyrazino[2,1-c][1,4]oxazin-8-yl]-(2-chloro-3-methoxy-phenyl)methanone]	0.468
COc1cccc(C(=O)N2CCN3C[C@@](O)(c4ccccc4Cl)OC[C@@H]3C2)c1Cl [Example 150, [(3R,9aS)-3-(2-chlorophenyl)-3-hydroxy-1,4,6,7,9,9a-hexahydropyrazino[2,1-c][1,4]oxazin-8-yl]-(2-chloro-3-methoxy-phenyl)methanone]	0.546
N#Cc1cc(-c2cc(F)cc(C(=O)N3CCN4C[C@H](c5c[nH]c(C(F)(F)F)cc5=O)OC[C@@H]4C3)c2Cl)c[nH]1 [Example 151, 4-[3-[(3S,9aS)-3-[4-oxo-6-(trifluoromethyl)-1H-pyridin-3-yl]-3,4,6,7,9,9a-hexahydro-1H-pyrazino[2,1-c][1,4]oxazine-8-carbonyl]-2-chloro-5-fluoro-phenyl]-1H-pyrrole-2-carbonitrile]	0.575
N#Cc1ncc(-c2cccc(C(=O)N3CCN4C[C@@](O)(c5ccc(F)c(F)c5)OC[C@@H]4C3)c2Cl)[nH]1 [Example 152, 5-[3-[(3R,9aS)-3-(3,4-difluorophenyl)-3-hydroxy-1,4,6,7,9,9a-hexahydropyrazino[2,1-c][1,4]oxazine-8-carbonyl]-2-chloro-phenyl]-1H-imidazole-2-carbonitrile]	0.581
COc1cccc(C(=O)N2CCN3C[C@@](O)(c4ccc(C(F)(F)F)nc4C)OC[C@@H]3C2)c1Cl [Example 153, [(3R,9aS)-3-hydroxy-3-[2-methyl-6-(trifluoromethyl)-3-pyridyl]-1,4,6,7,9,9a-hexahydropyrazino[2,1-c][1,4]oxazin-8-yl]-(2-chloro-3-methoxy-phenyl)methanone]	0.705
COc1cccc(C(=O)N2CCN3C[C@@](O)(c4cc(Cl)cc(-c5cnco5)c4)OC[C@@H]3C2)c1Cl [Example 154, [(3R,9aS)-3-(3-chloro-5-oxazol-5-yl-phenyl)-3-hydroxy-1,4,6,7,9,9a-hexahydropyrazino[2,1-c][1,4]oxazin-8-yl]-(2-chloro-3-methoxy-phenyl)methanone]	0.769
COc1cccc(C(=O)N2CCN3C[C@@H](c4ccc(C(F)(F)F)[nH]c4=O)OC[C@@H]3C2)c1Cl [Example 155, 3-[(3R,9aS)-8-(2-chloro-3-methoxy-benzoyl)-3,4,6,7,9,9a-hexahydro-1H-pyrazino[2,1-c][1,4]oxazin-3-yl]-6-(trifluoromethyl)-1H-pyridin-2-one]	0.78
COc1cccc(C(=O)N2CCN3CC(c4ccc(F)c(-c5ccn(C)c5)c4)OC[C@@H]3C2)c1Cl (stereo partly drawn) [Example 156, [(9aS)-3-[4-fluoro-3-(1-methylpyrrol-3-yl)phenyl]-3,4,6,7,9,9a-hexahydro-1H-pyrazino[2,1-c][1,4]oxazin-8-yl]-(2-chloro-3-methoxy-phenyl)methanone]	0.815
COc1cccc(C(=O)N2CCN3C[C@@](O)(c4cc(Br)no4)OC[C@@H]3C2)c1Cl [Example 157, [(3S,9aS)-3-(3-bromoisoxazol-5-yl)-3-hydroxy-1,4,6,7,9,9a-hexahydropyrazino[2,1-c][1,4]oxazin-8-yl]-(2-chloro-3-methoxy-phenyl)methanone]	0.849
O=C(c1cccc(-c2c[nH]ncc2=O)c1Cl)N1CCN2C[C@@H](c3ccc(F)c(Cl)c3)OC[C@@H]2C1 [Example 158, 5-[3-[(3R,9aS)-3-(3-chloro-4-fluoro-phenyl)-3,4,6,7,9,9a-hexahydro-1H-pyrazino[2,1-c][1,4]oxazine-8-carbonyl]-2-chloro-phenyl]-1H-pyridazin-4-one]	1.02
COc1ccc(F)c(C(=O)N2CCN3C[C@H](c4ccc(F)c(Cl)c4)OC[C@@H]3C2)c1Cl [Example 159, [(3S,9aS)-3-(3-chloro-4-fluoro-phenyl)-3,4,6,7,9,9a-hexahydro-1H-pyrazino[2,1-c][1,4]oxazin-8-yl]-(2-chloro-6-fluoro-3-methoxy-phenyl)methanone]	1.48
COc1ccc(-c2nc([C@]3(O)CN4CCN(C(=O)c5cccc(OC)c5Cl)C[C@H]4CO3)cs2)cn1 [Example 160, [(3S,9aS)-3-hydroxy-3-[2-(6-methoxy-3-pyridyl)thiazol-4-yl]-1,4,6,7,9,9a-hexahydropyrazino[2,1-c][1,4]oxazin-8-yl]-(2-chloro-3-methoxy-phenyl)methanone]	1.6
